Measured values as given in US9981951B2, “Crystalline and amorphous forms of Olaparib” (Olon S.P.A., priority 2015, dated 2018).

Tests used:
Type in all cases: physicochemical
[1] = stability of the solid form (air, moisture, heat)
[2] = solubility in various organic solvents and in water; conditions: compared with crystalline forms A and L of Olaparib
hygroscopicity = test: hygroscopicity

Row | solubility in various organic solvents and in water [2] | stability if exposed to the moisture in the air ([1]; exposed to the moisture in the air) | hygroscopicity (hygroscopicity) | SMILES | stability to air and heat ([1]; air and heat, long time (30 days)) | stability when exposed to a water-saturated environment ([1]; water-saturated environment)
1 | – | – | – | O=C(c1cc(Cc2n[nH]c(=O)c3ccccc23)ccc1F)N1CCN(C(=O)C2CC2)CC1 [4-[3-(4-cyclopropanecarbonyl-piperazine-1-carbonyl)-4-fluorobenzyl]-2H-phthalazin-2-one] | stable to air and heat for a long time (30 days) | maintains its original physicochemical characteristics
2 | better solubility | stable | not hygroscopic | O=C(c1cc(Cc2n[nH]c(=O)c3ccccc23)ccc1F)N1CCN(C(=O)C2CC2)CC1 [amorphous form of Olaparib, 4-[3-(4-cyclopropanecarbonyl-piperazine-1-carbonyl)-4-fluorobenzyl]-2H-phthalazin-2-one] | – | –
